The values that follow come from publication PMC9000415, “Discovery of Novel Epoxyketone Peptides as Lipase Inhibitors” (Molecules, 2022).

Usually IC50 stands for the midpoint of a concentration-inhibition curve.

The target of assay [1] is T1, porcine PL (pancreatic lipase) (Sus scrofa, UniProt P00591).
T1 construct: Lipase from porcine pancreas, Type II; purchased Sigma Aldrich L3126; host or cells: porcine pancreas (tissue-derived)
T1 sequence (P00591 1-450): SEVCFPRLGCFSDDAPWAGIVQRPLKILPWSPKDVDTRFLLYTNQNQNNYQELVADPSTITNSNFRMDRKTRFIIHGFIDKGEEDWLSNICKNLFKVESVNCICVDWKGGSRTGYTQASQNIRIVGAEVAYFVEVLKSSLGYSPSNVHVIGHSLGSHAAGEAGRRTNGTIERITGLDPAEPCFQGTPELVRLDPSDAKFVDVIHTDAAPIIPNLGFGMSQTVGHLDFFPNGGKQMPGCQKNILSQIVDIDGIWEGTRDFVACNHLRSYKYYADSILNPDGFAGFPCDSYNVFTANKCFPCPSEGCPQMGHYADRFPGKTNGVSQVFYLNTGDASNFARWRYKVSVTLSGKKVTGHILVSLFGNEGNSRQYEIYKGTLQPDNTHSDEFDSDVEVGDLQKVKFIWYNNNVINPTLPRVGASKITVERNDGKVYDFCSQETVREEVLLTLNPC
Put plainly: GC-FID based anti-lipase assay (phenyl acetate hydrolysis). Format: biochemical. The conditions noted are these: for IC50: porcine pancreatic lipase, phenyl acetate substrate, GC-FID, read-out: IC50 (nM) against PL. As to the method: All chemicals and solvents were purchased from commercial suppliers (Amman, Jordan) and used without further purification. Anhydrous solvents were distilled from sodium and benzophenone before use. NMR (The University of Jordan, Amman, Jordan) spectra were recorded on a Varian 500 MHz spectrometer (500 and 125 MHz for the ^1H and ^13C nuclei, respectively) using CDCl3 as solvents and spectra were referenced to residual solvent as internal standard (for CDCl3 δH 7.26 and δC 77.1). LC-HRMS data for analysis of compounds 3−13 were obtained on an Agilent 6239 HR-ESI-TOFMS (UCSD, San Diego, CA, USA) equipped with a Phenomenex Luna 5 µm C18 100 Å column (4.6 × 250 mm). LCMS data for purity analysis of the synthesized compounds 3−13 were obtained with a Thermo Finnigan Surveyor Autosampler-Plus/LC-PumpPlus/PDA-Plus system and a Thermo Finnigan LCQ Advantage Max mass spectrometer (monitoring m/z 150−2000 in positive ion mode) using a linear gradient of 30–100% H2O/acetonitrile over 30 min; flow rate of 0.9 mL/min (UCSD, San Diego, CA, USA). Semipreparative HPLC (UCSD, San Diego, CA, USA) purification was carried out using a Waters 515 with a Waters 996 photodiode array detector using Empower Pro software. […] Chemical shifts (δ) are given in parts per million (ppm) and coupling constants (J) are reported in Hertz (Hz). The compounds are named in accordance with IUPAC rules as applied by ChemBioDraw Ultra (version 20.1.1) (software provided by the University of Jordan, Amman, Jordan). GCMS analysis: Thermo Scientific Focus gas chromatography coupled to a flame ionization […] was used to analyze the samples. A total of 1.0 µL sample was injected into the Thermo Scientific Focus GC-FID equipped with a split/spitless injector (split ratio, 2.5). The column was HP-5 (DP-5) capillary column stationary phase. Helium was the carrier gas at a flow rate of 1.0 mL/min. Linear temperature program was applied from 100 to 250 °C at 5 °C/min. The specific run time of analysis for each sample was […]. The temperatures of the injector base and the detector were maintained at 250 °C, 250 °C respectively. Lipase from porcine pancreas, Type II, 100–650 units/mg protein (product# L3126) was purchased from Sigma Aldrich (Amman, Jordan).
All tested compounds were dissolved in DMSO to prepare a stock solution (of each compound) having a known concentration. A proper aliquot of each tasted compound was obtained by further dilution of the stock. Samples were prepared and analyzed for their phenyl acetate content by adopting an internal standard procedure. the sample analysis performed using GC-FID. For each sample, 50 µL of 2 mg/mL pancreatic lipase, phenyl acetate (1 mM), and 50 µL of each candidate inhibitor. […] Subsequently, the samples were left for overall time of 20 min vortex and centrifuged for approximately 3 min. For extraction of the phenyl acetate remain in the aqueous layer the nonpolar solvent chloroform containing the internal standard added, then vortex and centrifuged and the chloroform removed to another tube for the GC-FID analysis.
The linearity, RSD, LOD, and LOQ were evaluated for the method of analysis. […] The LOD and LOQ both was measured using the signal-to-noise method. The ratio of the analyte signal to the peak-to-peak noise signal around it was measured of (3:1) which is generally accepted signal-to-noise ratio (S/N) for the LOD estimation.

The subject of assay [2] is CCD-1064Sk fibroblast cell line. The assay is described as follows: Cytotoxicity, MTT assay, fibroblasts. It counts as cell-based. The conditions noted are these: Homo sapiens, 72 h exposure. As to the method:
(§1) All the cell line that were used in this study are (CCD-1064SK) the human normal skin fibroblast and HepG2 hepatoma cell line. The CCD-1064SK and HepG2 cell line was purchased from American Type Culture Collection (ATCC, Manassas, VA, USA). Cells were cultured in Iscove’s medium as recommended from ATCC. Media was supplement with 10% heated fetal bovine serum, 1% of 2 Mm L-glutamine, and (100 IU/mL) penicillin/(100 ug/mL) streptomycin. According to the cells growth profile, cells were seeded with a density of 10 × 10^4 cell/well. Cell viability was determined by trypan blue exclusion using a hemocytometer. For the cytotoxicity assay, cells were washed with phosphate buffer saline (PBS). PBS was decanted and cells detached with 0.025% trypsin-EDTA (EuroClone). Media was added to a volume of 10 mL. The cell suspension was centrifuged at 1000 rpm for 10 min and the pellet was resuspended in 10 mL medium to make a single cell suspension. Viability of the cells was determined by trypan blue exclusion, and it exceeded 90% as counted in a hemocytometer. The cell suspension was diluted afterwards to give the optimal seeding density and 100 uL of the cell suspension was plated in a 96 well plate. Cells were cultured at 37 °C in a humidified atmosphere of 5% CO2. After 24 h the cells were treated with different concentrations of tested compounds, (each compound was initially dissolved in DMSO). Initially, 100 and 50 ug/mL of each extract were tested. The active compounds were those which gave less than 50% survival at exposure time 72 h. The final dilution for all prepared concentrations used for treating the cells contained not more than 0.01% of the initial solvent (DMSO), this concentration being used in the solvent control wells. At the end of the exposure time, cell growth was analyzed using the MTT assay. MTT assay: After 72 h of incubation, 15 µL of MTT stock solution (Promega) (5 mg/mL in sterile phosphate-buffered saline, pH 7.4) was added to each well. After the cells were incubated for 3 h in the presence of MTT, 100 µL of solubilizing stop solution was added to each well to solubilize the dark violet formazan crystals. The optical densities at 570 nm were then measured using a microplate reader. The results were expressed as a percentage of cell viability with respect to a control corresponding to untreated cells.

For assay [3], the system named is HepG2 hepatoma cell line. Put plainly: Cytotoxicity, MTT assay, HepG2. It counts as cell-based. The conditions noted are these: Homo sapiens, 72 h exposure, read-out: HepG2 Cells IC50. As to the method:
as §1

Assay [4] has as its system dietary fat absorption. The conditions noted are these: therapeutic dose; cited from earlier work.

Take `CCCCCCCCCCCC(=O)N[C@@H](Cc1ccc(F)cc1F)C(=O)[C@@]1(C)CO1` [Analogue 3, N-((S)-3-(2,4-difluorophenyl)-1-((R)-2-methyloxiran-2-yl)-1-oxopropan-2-yl)dodecanamide]: the IC50 in assay [1] was 29.3 ± 2.4 nM; in assay [2], over 15000 nM; in assay [3], 2600 nM.

Regarding `CCCCCCCCCCCC(=O)N[C@@H](CCCC)C(=O)N[C@@H](Cc1ccc(F)cc1F)C(=O)[C@@]1(C)CO1` [Analogue 4, N-((S)-1-(((S)-3-(2,4-difluorophenyl)-1-((R)-2-methyloxiran-2-yl)-1-oxopropan-2-yl)amino)-1-oxohexan-2-yl)dodecanamide], the IC50 was 9.3 ± 2.5 nM in assay [1], over 15000 nM in assay [2] and 2320 nM in assay [3].

`CC(C)(C)OC(=O)N[C@@H](Cc1ccc(F)cc1F)C(=O)[C@@]1(C)CO1` [Analogue 5, tert-butyl ((S)-3-(2,4-difluorophenyl)-1-((R)-2-methyloxiran-2-yl)-1-oxopropan-2-yl)carbamate]: the IC50 in assay [1] is 29.4 ± 4.8 nM; in assay [2], over 15000 nM; in assay [3] it was over 15000 nM.

With `CC(C)(C)OC(=O)N[C@@H](Cc1ccc(F)cc1)C(=O)[C@@]1(C)CO1` [Analogue 6, tert-butyl ((S)-3-(4-fluorophenyl)-1-((R)-2-methyloxiran-2-yl)-1-oxopropan-2-yl)carbamate], the half-inhibitory concentration (IC50) was 46.4 ± 3.7 nM in assay [1], over 15000 nM in assay [2] and over 15000 nM in assay [3].

Take `CC(C)(C)OC(=O)N[C@@H](Cc1ccccc1)C(=O)[C@@]1(C)CO1` [Analogue 7, tert-butyl ((S)-1-((R)-2-methyloxiran-2-yl)-1-oxo-3-phenylpropan-2-yl)carbamate]: the half-inhibitory concentration (IC50) is 49.1 ± 11.4 nM in assay [1], over 15000 nM in assay [2] and over 15000 nM in assay [3].

As for `CC(C)C[C@H](NC(=O)OC(C)(C)C)C(=O)[C@@]1(C)CO1` [Analogue 8, tert-butyl ((S)-4-methyl-1-((R)-2-methyloxiran-2-yl)-1-oxopentan-2-yl)carbamate], the half-maximal inhibitory concentration (IC50) in assay [1] is 120 ± 15.2 nM; in assay [2], over 15000 nM; in assay [3] it was over 15000 nM.

Regarding `C[C@]1(C(=O)[C@@H](N)Cc2ccc(F)cc2F)CO1` [Analogue 9, (S)-2-amino-3-(2,4-difluorophenyl)-1-((R)-2-methyloxiran-2-yl)propan-1-one], the IC50 in assay [1] was 41.5 ± 7.1 nM; in assay [2] it was over 15000 nM; in assay [3], over 15000 nM.

Take `C[C@]1(C(=O)[C@@H](N)Cc2ccccc2)CO1` [Analogue 10]: the 50% inhibitory concentration (IC50) in assay [1] was 73.1 ± 9.8 nM; in assay [2] it was over 15000 nM; in assay [3] it was over 15000 nM.

For `CC(C)(C)OC(=O)N[C@@H](Cc1ccc(F)cc1F)C(=O)[C@]1(C)CO1` [Analogue 11, tert-butyl ((S)-3-(2,4-difluorophenyl)-1-((S)-2-methyloxiran-2-yl)-1-oxopropan-2-yl)carbamate], the values for the IC50 in assay [1], in assay [2] and in assay [3] were 29 ± 4.2 nM, over 15000 nM and over 15000 nM, respectively.

Take `C=C(C)C(=O)[C@H](Cc1ccc(F)cc1F)NC(=O)OC(C)(C)C` [Analogue 13, tert-butyl (S)-(1-(2,4-difluorophenyl)-4-methyl-3-oxopent-4-en-2-yl)carbamate]: in assay [1] (10 µM), the “inhibition of PL at the highest concentration tested” value is listed as “did not inhibit”. Moreover, the IC50 in assay [1] was over 10000 nM; in assay [2], over 15000 nM; in assay [3], over 15000 nM.

For `CCCCCC(=O)N[C@H](C(=O)N[C@@H](CCS(C)(=O)=O)C(=O)N[C@@H](CC(C)C)C(=O)[C@@]1(C)CO1)C(C)C` [carmaphycin B (2), carmaphycin B, reference compound], the concentration for half-maximal inhibition (IC50) in assay [1] came to 25 ± 1.1 nM.

As for `CCCCCCCCCCC[C@@H](C[C@@H]1OC(=O)[C@H]1CCCCCC)OC(=O)[C@H](CC(C)C)NC=O` [orlistat (1), orlistat], the “inhibition of dietary fat absorption” value in assay [4] was “approximately 30%”.
